Measured values from US20050075398A1, “Neuroprotectin D1 protects against cellular apoptosis, stroke damage, alzheimer's disease and retinal diseases” (priority 2003, published 2005).

Columns and labels:
[1] = system: polymorphonuclear leukocyte infiltration (myeloperoxidase activity); assay: Myeloperoxidase (MPO) activity assay in hippocampus and neocortex after MCA-O and reperfusion; type: in vivo, mouse; conditions: 0.4 μg over 48 h cerebroventricular perfusion; 1 h MCA-O, 48 h reperfusion
Protocol: Middle Cerebral Artery Occlusion (MCA-O) and reperfusion. Experimental protocols were reviewed and approved by the Institutional Animal Care and Use Committee of Louisiana State University Health Sciences Center, New Orleans. Mice (20-25 g body wt) were induced with 2% isoflurane in a mixture of 70% nitrous oxide and 30% oxygen. Anesthesia was maintained with 1% isoflurane. Temperature was maintained at 36.5-37.5° C. using a Harvard homeothermic blanket. P 10 polyethylene catheters were placed in the femoral artery and vein, and the blood pressure was monitored. Arterial blood was analyzed for PO2, PCO2, and pH after 1 h of ischemia and 30 min after the onset of reperfusion. The common carotid and external carotid arteries were temporarily ligated with a retracting suture, and the external carotid artery was dissected just proximal to its bifurcation. The occluding filament was introduced from the external carotid artery and advanced to the internal carotid artery. The AVM micro clip was removed. The filament was advanced so that the blunted tip lay in the anterior cerebral artery and the side of the filament occluded the origin of the middle cerebral artery (MCA). The stump of the external carotid artery was ligated, and tension on the retracting suture to the common carotid artery was gently released, restoring blood flow to the carotid system.
Occlusion of the middle cerebral artery (MCA-O) was maintained for 1 h; reperfusion was then established by delicate retrieval of the occluding suture from the arterial lumen, restoring blood flow to the region of the MCA. The mice were then killed, and the hippocampus and brain cortex rapidly dissected and frozen. Samples were kept at −80° C. until analysis. In some experiments, aspirin (7.5 mg/kg) was administered by gavage 15 min before MCA-O.
Polymorphonuclear leukocyte infiltration measurement by the myeloperoxidase (MPO) assay. Inhibition of leukocyte infiltration by 10,17S-docosatriene (NPD1) or docosahexaenoic acid (DHA) was measured in mouse hippocampus and neocortex after 1 h of middle cerebral artery occlusion (MCA-O) and 48 h of reperfusion. Lipids were delivered for each experiment by perfusion (250 nl/h) through Alzet minipumps implanted into the third ventricle. Hippocampus and neocortex from the ipsilateral (MCA-O-reperfusion) and contralateral sides were rapidly dissected. Brain samples were assayed for myeloperoxidase activity as described in Huang, J., Choudhri, T. F., Winfree, C. J., McTaggart, R. A., Kiss, S., Mocco, J., Kim, L. J., Protopsaltis, T. S., Zhang, Y., Pinsky, D. J., and Connolly Jr., E. S. (2000) Stroke 31, 3047-3053. Briefly, brain tissues were homogenized in 10 mM phosphate buffer (pH 7.4), then frozen and thawed with liquid N2 followed by sonication. Samples were precipitated at 10,000×g for 10 min, then aliquots of supernatants were added to 10 mM phosphate buffer (pH 6.0) and a substrate solution containing o-dianisidine (Sigma; St. Louis, Mo.) and 0.025% hydrogen peroxide, and finally incubated at 37° C. for 45 min. Spectrophotometric detection was obtained at 460 nm.

STAT-1-DNA binding = assay: EMSA of STAT-1 in hippocampus after MCA-O; type: in vivo, mouse; conditions: 1 h MCA-O, 2 h reperfusion, NPD1 0.16 μg/ml infused 3 h
Protocol: Electrophoretic mobility-shift assay (EMSA) of human AP1, HIF-1α, NF-κBp50/p65, and STAT-1α. Nuclear protein extracts (NPXTs) were prepared from one to three 3.5 cm-diameter wells of HN cells and quantitated. NPXTs (5 μg) derived from HN cells were incubated with[γ-^32P]-ATP (˜3000 Ci/mmol)-end-labeled AP1, HIF-1α, NF-κκBp50/p65, or STAT-1α consensus and mutant oligonucleotides in 5-μl volumes, reacted for 30 min on ice, analyzed on 5% or 10% acrylamide/90 mM Tris-borate pH 8.4, 1 mM EDTA (TBE) gels, dried onto 2-mm Whatman filter paper at 80° C. for 2 h, and phosphorimaged using a Typhoon Variable Mode Imager (Amersham Pharmacia Biotech, Piscataway, N.J. ).
FIGS. 7A, 7B, and 7C show mouse hippocampus after 1 h MCA-O was followed by 2 h reperfusion, where either vehicle, DHA, or 10,17S-docosatriene (NPD1) (0.16 μg/ml) was infused into the third ventricle for 3 h at 0.25 μl/h. […] NF-κB was increased over two fold in the ipsilateral hippocampus after MCA-O, and the infusion of either DHA or 10,17S-docosatriene (NPD1) inhibited ischemia-reperfusion-induced NF-κB activation by 28% and 48%, respectively (FIG. 7A).

Bcl-2 gene expression = assay: HGU133 GeneChip DNA array in HN cells: Bcl-2; type: cell-based, human; conditions: Aβ42 25 μM, DHA 50 nM or NPD1 50 nM, 18 h, nsc = no significant change
Bcl-xL gene expression = assay: HGU133 GeneChip DNA array in HN cells: Bcl-xL; type: cell-based, human; conditions: Aβ42 25 μM, DHA 50 nM or NPD1 50 nM, 18 h, nsc = no significant change
Bcl-2 = assay: Western blot of Bcl-2 in ARPE-19 cells under TNFα/H2O2; type: cell-based, human; conditions: 50 nM; TNFα plus H2O2 (400 or 800 μM) 6 h
Protocol: Analysis of pro- and anti-apoptotic proteins in ARPE-19 cells: Bcl-2 family proteins were analyzed by Western-blot analysis. In brief, 20-μg equivalents of each cell extract were subjected to electrophoresis on a 8-16% gel (Promega, Madison, Wis.) at 125 volts for 2 h. The proteins were transferred to nitrocellulose membrane at 30 volts for 1 h at 4° C. The membranes were subjected to treatment with primary antibodies of Bcl-2, Bcl-xL, Bax, and Bad for 1 h at room temperature, and probed 30 min with secondary antibody, goat anti-rabbit Ig:HRPO and HRP-conjugated anti-biotin antibody. (BD Sciences—Pharminogen, San Diego, Calif.) Then proteins were evaluated using an ECL kit. (Amersham Biosciences Corp., Piscataway, N.J.)
Using the same TNFα/H2O2 concentrations, Bcl-2 proteins were assayed. Cells were grown for 72 h after plating, placed in serum-free medium for 1 h, then incubated with TNFα/H2O2 for 6 h. Protein expression and Western-blot analysis were performed as described in Example 13. Data in FIGS. 14A, 14B, 14C and 14D represent four independent experiments with triplicate samples in each case. Anti-apoptotic protein Bcl-xL was enhanced in ARPE-19 cells by TNFα/H2O2 (800 μM) (FIG. 14B, first bar), whereas Bcl-2 was not changed (FIG. 14A, first bar).

Structure (SMILES): CC/C=C\C[C@H](O)\C=C/C=C/C=C/[C@H](O)C/C=C\C/C=C\CCC(=O)O [NPD1, 10,17S-docosatriene]
- inhibition of ipsilateral myeloperoxidase activity, cortex [1]: 99%
- inhibition of ipsilateral myeloperoxidase activity, hippocampus [1]: 80%
- effect on STAT-1-DNA binding (STAT-1-DNA binding): small effect
- Bcl-2 gene expression, fold change over untreated controls (Bcl-2 gene expression): +3.3 fold
- Bcl-xL gene expression, fold change over untreated controls (Bcl-xL gene expression): +2.4 fold
- effect on Bcl-2 expression (Bcl-2): increased expression
